Laboratory results taken from patent publication US7018995B2, “Carbonate and carbamate modified forms of glucocorticoids” (Sepracor Inc., priority 2002, dated 2006).

How the values were obtained:
[1] = tested on: WI-38 human lung fibroblast line (IL-1β-stimulated PGE2); assay: Inhibition of IL-1β-stimulated PGE2 release in WI-38 cells; type: cell-based; settings: WI-38 cells stimulated with recombinant human IL-1β, 24 hours incubation, PGE2 by EIA; read-out: IC50 (level of PGE2 in supernatants)
Procedure: Compounds as described above were tested in the following assay for biological activity. The WI-38 human lung fibroblast line was obtained from the ATCC (catalog number 75-CCL) and maintained in Basal Medium Eagle with Earle's salts (GibcoBRL product number 21010-046) supplemented with 2 mM glutamine and 10% fetal calf serum at 37° C. in a 7% CO2 (balance air), humidified atmosphere. One week before experiments were done, the WI-38 cells were seeded into 48-well tissue culture dishes and maintained in media containing 10% fetal calf serum. The cells were used when confluent. The day before the experiment the cells were fed fresh media containing 10% fetal calf serum (0.25 mL per well). On the day of the experiment the media was removed from the cells and 0.25 mL of media containing 5% fetal calf serum added.
To determine the IC50 values for the compounds, 1 to 1000 dilutions were made of the 5 mM stock solutions in DMSO to give 5 uM solutions. These solutions were serially diluted 1:2 in DMSO to give a series of 12 dilutions ranging from 5 uM to 2.4 nM. 0.0025 mL aliquots of the 12 dilutions were added to wells of the WI-38 cells to give final compound concentrations ranging from 50 nM to 0.024 nM. The cells were stimulated by addition of 0.001 mL of 0.025 ug/mL recombinant human Interleukin-1β (IL-1β-Calbiochem catalog number 407615) in 0.1% bovine serum albumin in phosphate buffered saline. The cells were incubated for 24 hours and the supernatants harvested. The level of PGE2 in the supernatants was assayed using a commercial Enzyme Immuno Assay (EIA) kit (Cayman Chemical catalog number 514010) after diluting 1:10 in EIA buffer according to the manufacturer's directions. The data from these experiments was fit to a 4 parameter logistic function using the IC50 routine in the Grafit 4 program (Erithecus software).

rat paw edema = assay: Carrageenan rat paw edema model; type: in vivo; settings: for maximum activity at 24 hours / onset of action: rat paw edema; for reduction of swelling (percent inhibition of edema volume vs vehicle): injected into paw
Procedure: The compounds of the invention were also tested in vivo in a rat paw edema model [Hirschelmann, R. and Bekemeier, H., Int J Tissue React 6, 471-475 (1984)], which persons of skill in the art accept as predictive of efficacy in treating asthma and rhinitis in humans.
Rat Paw Edema Protocol: Male Sprague Dawley rats Rj: SD (IOPS Han) (CEJ, France) weighing between 140 and 160 grams were used in the studies. Animals were housed in a temperature (19.5-24.5° C.), relative humidity (40-70%) and 12-hour light/dark cycle (light 6:00 a.m. to 6:00 p.m.)-controlled room, with ad libitum access to filtered tap-water and standard pelleted laboratory chow (U.A.R., France) throughout the studies. Carrageenan lambda type IV (Sigma, France) was prepared as a 2% (w/v) solution in saline. Compounds to be tested were dissolved in dimethylsulfoxide (DMSO) such that the indicated doses were in a final volume of 0.05 mL. Doses were expressed as mg/paw free active substance. From 17 to 19 hours before the studies the rats were fasted with free access to water. The paw volumes of the left hindpaws of the rats were measured using an electronic plethysmometer type 7140 (Ugo Basile-Italy) at time=0. Paw edema was then induced by injection of 0.05 mL of 2% carrageenan solution into the left hindpaws of the rats. Immediately after injection of the carrageenan, compounds in DMSO or vehicle alone were injected into the same paw in a volume of 0.05 mL in a blind and random fashion.
The paw volumes were measured at 1.5 hours, 3 hours, 4.5 hours and 24 hours after administration of the compounds. The edema volume of each rat at each time point was expressed as the change from the initial paw volume (time=0). A total of 5 rats were used for each compound dose and the average edema volume calculated for each dose. The anti-inflammatory effect in treated groups was expressed as the percent inhibition of edema volume compared to the vehicle-treated group at 1.5 hours, 3 hours, 4.5 hours and 24 hours.

[2] = at 24 hours, equimolar doses equivalent to 10 μg per paw of budesonide, FIG. 1

| Molecule | IC50 [1] | maximum activity at 24 hours (rat paw edema) | also measured |
| --- | --- | --- | --- |
| CCCC1OC2CC3C4CCC5=CC(=O)C=CC5(C)C4C(O)CC3(C)C2(C(=O)COC(=O)OCC(C)C)O1 (stereo not shown) [Example 1, Budesonide isobutylcarbonate] | 0.12 nM | – | – |
| CCCCCCCCCCOC(=O)OCC(=O)[C@@]12OC(CCC)O[C@@H]1C[C@H]1[C@@H]3CCC4=CC(=O)C=C[C@]4(C)[C@H]3[C@@H](O)C[C@@]12C (stereo partly shown) [Example 8, Budesonide decylcarbonate] | – | – | more efficacious than budesonide itself (rat paw edema; [2]): 30% |
| CCCC1OC2CC3C4CCC5=CC(=O)C=CC5(C)C4C(O)CC3(C)C2(C(=O)COC(=O)OCCCCCCCCCCCN(C)C)O1 (stereo not shown) [Example 15, Budesonide 11-dimethylaminoundecylcarbonate] | – | 73% | – |
| CCCC1O[C@@H]2C[C@H]3[C@@H]4CCC5=CC(=O)C=C[C@]5(C)[C@H]4[C@@H](O)C[C@]3(C)[C@]2(C(=O)CO)O1 (stereo partly shown) [budesonide, reference compound] | 0.2 nM | – | reduction of swelling (percent inhibition of edema volume vs vehicle) (rat paw edema; [2]): 46% |
| Budesonide dodecylcarbonate [Example 2] | 0.53 nM | – | reduction of swelling (percent inhibition of edema volume vs vehicle) (rat paw edema; [2]): 88% |
| Budesonide farnesolcarbonate [Example 17] | – | 86% | onset of action (rat paw edema): normal onset of action |
| Budesonide heptylcarbonate [Example 14] | – | – | efficacy compared with the C6 carbonate ester (rat paw edema; [2]): more efficacious |
| Budesonide hexylcarbonate [Example 3] | 0.14 nM | – | – |
| Budesonide phytolcarbonate [Example 16] | – | 69% | onset of action (rat paw edema): normal onset of action |
